From the NIST ThermoML archive (doi:10.1016/j.jct.2005.02.014)

Experiment: molar heat capacity at constant pressure
Settings: 101.33 kPa, Crystal

[Gd+3].[Gd+3].[O-2].[O-2].[O-2] [gadolinium sesquioxide]
Settings | molar heat capacity at constant pressure [J/K/mol]
177.31 K | 80.7
178.65 K | 81.16
179.29 K | 81.37
180 K | 81.58
181.27 K | 81.94
181.59 K | 82.04
183.25 K | 82.48
184.54 K | 82.86
185.23 K | 83.08
187.21 K | 83.64
187.49 K | 83.73
189.2 K | 84.23
190.44 K | 84.56
191.18 K | 84.81
193.16 K | 85.14
193.39 K | 85.31
195.15 K | 85.81
196.34 K | 86.05
197.13 K | 86.3
199.11 K | 86.89
199.29 K | 86.89
200 K | 87.05
201.1 K | 87.39
202.24 K | 87.63
203.08 K | 87.88
205.07 K | 88.38
205.19 K | 88.38
207.05 K | 88.8
208.15 K | 89.05
209.04 K | 89.3
211.03 K | 89.8
211.11 K | 89.8
213.01 K | 90.21
214.07 K | 90.46
215 K | 90.71
216.99 K | 91.13
217.03 K | 91.13
218.97 K | 91.54
219.98 K | 91.79
220 K | 91.79
220.96 K | 92.04
222.94 K | 92.46
222.95 K | 92.46
224.93 K | 92.87
225.89 K | 93.04
226.92 K | 93.29
228.85 K | 93.7
228.91 K | 93.62
230.9 K | 94.12
231.81 K | 94.2
232.89 K | 94.45
234.77 K | 94.87
234.87 K | 94.87
236.86 K | 95.28
237.72 K | 95.45
238.17 K | 95.62
238.8 K | 95.53
240 K | 95.87
240.35 K | 95.95
240.69 K | 95.95
242.83 K | 96.36
243.65 K | 96.53
245.3 K | 96.78
246.61 K | 97.03
247.77 K | 97.28
249.58 K | 97.53
250.25 K | 97.61
252.54 K | 98.11
252.72 K | 98.11
255.2 K | 98.19
255.52 K | 98.28
257.67 K | 98.78
258.49 K | 98.86
260 K | 99.11
260.15 K | 99.19
261.46 K | 99.44
262.63 K | 99.61
264.43 K | 99.86
265.1 K | 100
267.4 K | 100.4
267.57 K | 100.4
270.05 K | 100.8
